Reference: US9642895B2, “Peptides for enhancing transdermal delivery” (3M INNOVATIVE PROPERTIES COMPANY, priority 2013, dated 2017)

Tests used:
human cadaver skin [1] = test: Phage display library selection for skin penetration using tape stripping; assay type: in vitro ADME; conditions: phage-displayed peptide; phages recovered from tape strips 21-24 and remaining skin after 4 rounds of selection; 57 plaques sequenced
Description: (§1) Human cadaver skin was stored frozen. Prior to using, the frozen sections were placed in PBS and warmed to room temperature. The phage libraries or synthesized peptide sequences were applied to the stratum corneum side of the skin sample.
A tube containing LB medium (2 mL) and tetracycline (at a concentration of 20 μg/mL) was inoculated with E. coli ER2738 cells and then incubated overnight at 37° C. with shaking (200 rpm). An aliquot (100 microliter) was added to 20 mL of fresh LB medium containing 20 μg/mL of tetracycline. The culture was incubated at 37° C. with shaking (200 rpm) of the flask and the cells were grown to the early-log phase (OD600=0.5). Next, the phage sample was added and the culture was maintained for 4 hours at 37° C. with shaking of the flask.
E. coli ER2738 cells were removed from the phage amplified culture sample by centrifugation at 8000 rpm for 10 minutes. The resulting supernatant solution was added to the PEG/NaCl Phage precipitating solution (at a concentration of […]) and then maintained at 4° C. for 2 hours. The resulting phage precipitate was recovered by centrifuging the sample (8000 rpm for 30 min), removing the supernatant, and re-suspending the phage pellet in 2 mL of Tris-buffered saline (Tris buffered saline reagent prepared as 50 mM Tris-HCl in 150 mM NaCl buffered saline, pH 7.5). The amplified phage product was stored at 4° C.
LB Broth Medium (5-10 mL) was inoculated with a single colony of E. coli ER2738 and incubated with shaking (200 rpm) at 37° C. until the cells reached the early-log growth phase (OD600=0.5). The culture medium was then dispensed into multiple microfuge tubes (200 microliters per microfuge tube with one tube prepared for each phage dilution). Ten fold serial dilutions of amplified phage product in LB broth medium were prepared and a 10 microliter aliquot from each dilution was added to a separate microfuge tube containing culture medium. Each tube was vortexed and incubated at room temperature for 1-5 minutes.
The contents of each microfuge tube were transferred to a corresponding culture tube containing 3mL of soft agar maintained at 45° C. Each culture tube was then vortexed and the soft agar was poured onto a corresponding pre-warmed (37° C.) LB/IPTG/X-gal\tetraycline Petri plate. The resulting plates were gently tilted and rotated in order to evenly spread the soft agar on the plates. The plates were cooled for five minutes, inverted, and then incubated overnight at 37° C. Plates having approximately 100 plaques were counted providing an adjustment for the dilution factor. Single plaque phages on the plates were selected and further processed for DNA sequencing.
(§2) E. coli ER2738 cell culture (800 microliters of an early-log phase prepared as described above) was added to each well of a 96 deep well plate (each well having a 2 mL volume). Single plaque phages were randomly selected from Petri plates prepared as described in the phage titration procedure. A sterilized toothpick was used to remove a plaque from the Petri plate and transfer it to a well in the 96 well plate. The infected E. coli ER2738 cells were incubated for 4 hours at 37° C. with shaking (300 rpm). The liquid cultures were then centrifuged (4000 rpm for 60 min at 4° C.) and an aliquot of the resulting phage supernatant (10 microliters) from each well was sequenced for DNA using the rolling circle amplification method. The DNA sequencing was conducted at MCLAB (South San Francisco, Calif.).
Each phage display library (200 microliters in PBS) was applied to a 1 cm^2 section of human cadaver skin using a PIPETMAN Classic pipet (Gilson Inc., Middleton, Wis.). Adhesive tape was used to form a square frame that defined the application site. After 1 hour, the application site was washed with PBS to remove phages remaining on the skin surface. Tape stripping of the skin sample was accomplished using Scotch® box tape (3M Company, Maplewood, Minn.). […]

Hairless guinea pigs = test: Phage display library selection for skin penetration, in vivo hairless guinea pig procedure; conditions: phage-displayed peptide; phages recovered from blood 1 hour after loading on back skin; 48 plaques sequenced
Description: as §2
Hairless guinea pigs (200 gram females from Charles River Laboratory, Wilmington, Mass.) were anesthetized in a chamber using 3-5% isoflurane in oxygen or air, and maintained at 1.5-3% isoflurane with a co-axial breathing device (COAX-3 obtained from Viking Medical, Medford Lakes, N.J.). Each animal was placed in lateral recumbency on a thermostatically controlled surface with its nose and mouth inside the anesthetic face mask for the duration of the experiment. During the procedure, the animal was monitored for respiration rate and the level of anesthesia was adjusted as required. The section of the back used for loading a phage library was wiped with a 70% isopropanol in water solution.
A phage display library containing about 10^11 phage particles in 200 microliters of PBS was loaded onto a 1 cm^2 section of skin on the back of the animal using a PIPETMAN Classic pipet. In order to both control the humidity and reduce contamination at the application site, a Hill Top Chamber® (Hill Top Research, St. Petersburg, Fla.) was placed over the application site and attached with adhesive. After 1 hour, 10 mL of blood was bled from the heart. The blood was immediately transferred to a vial containing heparin (1000 USP units per mL). The sample of blood (10 mL) was mixed with 50 mL of E. coli ER2738 cells in LB broth medium (early log phase, OD600=0.5) and then added to 300 mL of soft agar. Equal portions of soft agar containing blood and ER2738 (about 7 mL per plate) were added to fifty LB/IPTG/X-gal/tetracycline Petri plates. The plates were incubated overnight at 37° C. The resulting single plaque phages were randomly picked from the agar plate and processed for phage DNA sequencing using the procedure described above. DNA sequences were successfully obtained from 48 of the 96 isolated phage plaques.

hairless guinea pig skin [2] = test: In vitro skin penetration enhancement of FITC, tape stripping; assay type: in vitro ADME; conditions: peptide 1 mg/mL with FITC sodium salt 10 mg/mL in PBS; 1 hour at room temperature; UV 340 nm; spot indicates penetration of FITC to the 20th tape strip
Description: An in vitro assay to test for skin penetration enhancement was conducted using hairless guinea pig skin. A full skin sample from the back region of the animal was used. An individual test sample for each peptide in Table 3 was prepared containing the peptide (at a concentration of 1 mg/mL), FITC sodium salt (at a concentration of 10 mg/mL), and PBS (200 microliters). The control sample was prepared containing only FITC sodium salt (at a concentration of 10 mg/mL), and PBS (200 microliters). Each peptide test sample was applied to a separate 1 cm^2 section on the stratum corneum side of the guinea pig skin using a PIPETMAN Classic pipet. In the same manner, the control sample was applied. The treated skin samples were covered, maintained at room temperature for 1 hour and then washed with deionized water for 5 minutes to remove any FITC remaining on the skin surface. Tape stripping of each skin application site was accomplished using Scotch® box tape. The tape was placed on the skin so that it covered the entire surface of an individual application site (width of tape strip approximately 1.5 cm). For each tape stripping procedure, the tape was secured to the skin with three cycles (3 forward and 3 backward passes) of a 300 g hand held roller. Next the tape was grasped by hand at one end and quickly peeled from the skin surface using a single motion. The exact same procedure of tape stripping was repeated for a total of 20 tape stripping operations at each application site. The 20th tape strip for each sample was imaged for FITC using ultraviolet light at 340 nm. The presence of a fluorescent spot on the tape indicated penetration of FITC to the 20th tape strip.

human cadaver skin [3] = test: In vitro skin penetration enhancement of GFP, tape stripping; assay type: in vitro ADME; conditions: 0.1 mg peptide with GFP 2.55 mg/mL in PBS; 2 hours at room temperature; 20 tape strips; control without peptide reached tape strip 6
Description: as §1
An in vitro assay to test for skin penetration enhancement was conducted using human cadaver skin. Two test samples (A and B) and a control sample were prepared. Test sample A contained GFP (at a concentration of 2.55 mg/mL), 0.1 mg of the peptide ACLDNTFRAC (Sequence ID No: 6, Table 2), and PBS (50 microliters). Test sample B contained GFP (at a concentration of 2.55 mg/mL), 0.1 mg of the peptide SHSACLDNTFRACGGGS (Sequence ID No: 14, Table 3), and PBS (50 microliters). The control sample contained GFP (at a concentration of 2.55 mg/mL) and PBS (100 microliters). Each sample was applied to a separate 1 cm^2 section of human cadaver skin using a PIPETMAN classic pipet. Adhesive tape was used to form a square frame that defined each application site. The treated skin samples were covered, maintained at room temperature for 2 hours, and then washed with deionized water for 5 minutes to remove any GFP remaining on the skin surface. Tape stripping of each skin application site was accomplished using Scotch® box tape. […]

hairless guinea pig skin [4] = test: In vitro penetration of FITC through full skin; assay type: in vitro ADME; conditions: peptide 2.5 mg/mL with FITC sodium salt 0.05 mg/mL in PBS; 3 hours at room temperature then 4° C. overnight; UV 340 nm
Description: An in vitro assay to test for skin penetration enhancement was conducted using hairless guinea pig skin. A full skin sample from the back region of the animal was used. The test sample was prepared containing FITC sodium salt (at a concentration of 0.05 mg/mL), the peptide SHSACLDNTFRACG (Sequence ID No: 17) at a concentration of 2.5 mg/mL, and PBS (40 microliters). The control sample was prepared containing only FITC sodium salt (at a concentration of 0.05 mg/mL), and PBS (40 microliters). Each sample was applied to a separate 0.25 cm^2 section on the stratum corneum side of the guinea pig skin using a PIPETMAN Classic pipet. The treated skin samples were covered, maintained at room temperature for 3 hours and then at 4° C. overnight. The side of the skin sample opposite the application side was visually examined under ultraviolet light (340 nm). Visualization of a fluorescent spot on the side of the skin directly opposite from the application site was used to confirm penetration of FITC through the skin. […] For the control sample a fluorescent spot was not visualized on the side of the skin directly opposite from the application site.

“1 (ACLPGVLGSC; Phage display library peptides) [compound 1]” was tested, and the “Frequency of Sequence in Plaques from Tape Stripping of Human Cadaver Skin Study” value (from here on “Frequency … of Human Cadaver Skin Study”) (human cadaver skin [1]) was 1 n/57 and the “Frequency of Sequence in Plaques from Hairless Guinea Pig Study” value (“Frequency … from Hairless Guinea Pig Study” below) (Hairless guinea pigs) was 0 n/48.
“10 (SHSACSLPWDASCGGGS; Phage display library peptides) [compound 10]” was tested, and the “Fluorescent Spot Visualized on Tape Strip #20” value (from here on “Fluorescent Spot Visualized”) (hairless guinea pig skin [2]) was “yes”.
In the case of “12 (SHSTWTQAWPWGWTWGGGS; Phage display library peptides) [compound 12]”, the “Fluorescent Spot Visualized” value (hairless guinea pig skin [2]) is reported as “yes”.
For “6 (ACLDNTFRAC; Phage display library peptides) [compound 6]”, the “Frequency … of Human Cadaver Skin Study” value (human cadaver skin [1]) was 2 n/57, the “deepest penetration of the green fluorescent signal of GFP in the skin sample (tape strip number)” value (human cadaver skin [3]) was 14 and the “Frequency … from Hairless Guinea Pig Study” value (Hairless guinea pigs) was 11 n/48.
“3 (ACDTPRLTHC; Phage display library peptides) [compound 3]” was tested, and the “Frequency … of Human Cadaver Skin Study” value (human cadaver skin [1]) was 2 n/57 and the “Frequency … from Hairless Guinea Pig Study” value (Hairless guinea pigs) was 0 n/48.
With “7 (ASSTTLNTLAQ; Phage display library peptides) [compound 7]” the “Frequency … of Human Cadaver Skin Study” value (human cadaver skin [1]) was 9 n/57 and the “Frequency … from Hairless Guinea Pig Study” value (Hairless guinea pigs) was 5 n/48.
For “16 (SHSASSDIPLFTRYGGGS; Phage display library peptides) [compound 16]”, the “Fluorescent Spot Visualized” value (hairless guinea pig skin [2]) was “yes”.
In the case of “14 (SHSACLDNTFRACGGGS; Phage display library peptides) [compound 14]”, the “Fluorescent Spot Visualized” value (hairless guinea pig skin [2]) is reported as “yes” and the “deepest penetration of the green fluorescent signal of GFP in the skin sample (tape strip number)” value (human cadaver skin [3]) is reported as 20.
With “8 (ASSDIPLFTRY; Phage display library peptides) [compound 8]” the “Frequency … of Human Cadaver Skin Study” value (human cadaver skin [1]) was 1 n/57 and the “Frequency … from Hairless Guinea Pig Study” value (Hairless guinea pigs) was 4 n/48.
For “13 (SHSAKSSWWGRAYWYGGGS; Phage display library peptides) [compound 13]”, the “Fluorescent Spot Visualized” value (hairless guinea pig skin [2]) was “yes”.
For “15 (SHSASSTTLNTLAQWPA; Phage display library peptides) [compound 15]”, the “Fluorescent Spot Visualized” value (hairless guinea pig skin [2]) was “yes”.
For “5 (AKSSWWGRAYWY; Phage display library peptides) [compound 5]”, the “Frequency … of Human Cadaver Skin Study” value (human cadaver skin [1]) was 1 n/57 and the “Frequency … from Hairless Guinea Pig Study” value (Hairless guinea pigs) was 0 n/48.
“2 (ACSLPWDASC; Phage display library peptides) [compound 2]” was tested, and the “Frequency … of Human Cadaver Skin Study” value (human cadaver skin [1]) was 1 n/57 and the “Frequency … from Hairless Guinea Pig Study” value (Hairless guinea pigs) was 0 n/48.
With “17 (SHSACLDNTFRACG; Phage display library peptides) [compound 17]” the “fluorescent spot on the side of the skin directly opposite from the application site (penetration of FITC through the skin)” value (hairless guinea pig skin [4]) was “a fluorescent spot was visualized”.
For “4 (TWTQAWPWGWTW; Phage display library peptides) [compound 4]”, the “Frequency … of Human Cadaver Skin Study” value (human cadaver skin [1]) was 1 n/57 and the “Frequency … from Hairless Guinea Pig Study” value (Hairless guinea pigs) was 0 n/48.
